Results taken from ChEMBL document CHEMBL1152560, “Substituted 2-arylbenzothiazoles as kinase inhibitors: hit-to-lead optimization” (Bioorg Med Chem, 2009).

Legend:
[1] = biological target: SRSF protein kinase 2 (Homo sapiens) (UniProt P78362); test: Residual activity of SRPK2 at 10 uM by microplate scintillation counting
[2] = biological target: Activated CDC42 kinase 1 (Homo sapiens) (UniProt Q07912); test: Residual activity of ACK1 at 0.1 uM by microplate scintillation counting
[3] = biological target: Dual specificity protein kinase CLK1 (Homo sapiens) (UniProt P49759); test: Residual activity of CLK1 at 10 uM by microplate scintillation counting
[4] = biological target: Ribosomal protein S6 kinase alpha-3 (Homo sapiens) (UniProt P51812); test: Residual activity of RPS6KA3 at 10 uM by microplate scintillation counting
[5] = tested on: Epidermal growth factor receptor (Homo sapiens), P00533 [L858R,T790M]; test: Residual activity of EGFR T790M/L858R at 1 uM by microplate scintillation counting
[6] = biological target: Tyrosine-protein kinase ABL2 (Homo sapiens) (UniProt P42684); test: Residual activity of ABL2 at 1 uM by microplate scintillation counting
[7] = biological target: Protein-tyrosine kinase 6 (Homo sapiens) (UniProt Q13882); test: Residual activity of BRK at 10 uM by microplate scintillation counting
[8] = biological target: Vascular endothelial growth factor receptor 2 (Homo sapiens, UniProt P35968); test: Residual activity of VEGFR2 at 0.1 uM by microplate scintillation counting
[9] = biological target: Receptor tyrosine-protein kinase erbB-2 (Homo sapiens, UniProt P04626); test: Residual activity of ERBB2 at 10 uM by microplate scintillation counting
[10] = biological target: T1, Testis-specific serine/threonine-protein kinase 2 (Homo sapiens) (UniProt Q96PF2); test: Residual activity of TSK2 at 0.1 uM by microplate scintillation counting
T1 sequence (whole entry): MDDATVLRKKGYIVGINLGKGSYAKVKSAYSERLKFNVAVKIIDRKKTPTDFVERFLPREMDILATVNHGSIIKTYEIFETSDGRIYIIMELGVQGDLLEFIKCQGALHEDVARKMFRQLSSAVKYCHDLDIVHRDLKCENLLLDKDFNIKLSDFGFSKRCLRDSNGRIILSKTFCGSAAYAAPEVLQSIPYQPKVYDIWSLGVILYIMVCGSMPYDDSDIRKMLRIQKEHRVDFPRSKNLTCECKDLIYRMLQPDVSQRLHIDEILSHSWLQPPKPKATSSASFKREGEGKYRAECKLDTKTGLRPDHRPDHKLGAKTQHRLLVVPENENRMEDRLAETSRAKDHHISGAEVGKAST

[11] = biological target: Protein kinase C theta type (Homo sapiens) (UniProt Q04759); test: Residual activity of PKCtheta at 0.1 uM by microplate scintillation counting
[12] = biological target: T2, Aurora kinase A (Homo sapiens) (UniProt O14965); test: Residual activity of Aurora-A at 0.1 uM by microplate scintillation counting
T2 sequence (whole entry): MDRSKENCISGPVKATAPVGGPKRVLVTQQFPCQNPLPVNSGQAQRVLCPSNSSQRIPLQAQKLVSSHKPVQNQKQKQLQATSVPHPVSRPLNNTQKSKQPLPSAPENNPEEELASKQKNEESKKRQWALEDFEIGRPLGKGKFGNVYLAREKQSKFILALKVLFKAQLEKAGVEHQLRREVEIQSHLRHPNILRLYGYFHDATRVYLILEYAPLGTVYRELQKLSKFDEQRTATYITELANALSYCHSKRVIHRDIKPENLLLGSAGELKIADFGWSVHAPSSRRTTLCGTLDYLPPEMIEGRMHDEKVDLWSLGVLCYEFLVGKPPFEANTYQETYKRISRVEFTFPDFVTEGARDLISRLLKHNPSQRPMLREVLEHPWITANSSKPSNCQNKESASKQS

[13] = tested on: Epidermal growth factor receptor (Homo sapiens), P00533 [T790M]; test: Residual activity of EGFR T790M mutant at 0.1 uM by microplate scintillation counting
[14] = biological target: Serine/threonine-protein kinase B-raf (Homo sapiens) (UniProt P15056); test: Residual activity of Wild type B-RAF at 0.1 uM by microplate scintillation counting
[15] = biological target: Tyrosine-protein kinase FRK (Homo sapiens) (UniProt P42685); test: Residual activity of FRK at 1 uM by microplate scintillation counting
[16] = biological target: Hepatocyte growth factor receptor (Homo sapiens) (UniProt P08581); test: Residual activity of MET at 1 uM by microplate scintillation counting
[17] = biological target: T3, Interleukin-1 receptor-associated kinase 4 (Homo sapiens) (UniProt Q9NWZ3); test: Residual activity of IRAK4 at 1 uM by microplate scintillation counting
T3 sequence (whole entry): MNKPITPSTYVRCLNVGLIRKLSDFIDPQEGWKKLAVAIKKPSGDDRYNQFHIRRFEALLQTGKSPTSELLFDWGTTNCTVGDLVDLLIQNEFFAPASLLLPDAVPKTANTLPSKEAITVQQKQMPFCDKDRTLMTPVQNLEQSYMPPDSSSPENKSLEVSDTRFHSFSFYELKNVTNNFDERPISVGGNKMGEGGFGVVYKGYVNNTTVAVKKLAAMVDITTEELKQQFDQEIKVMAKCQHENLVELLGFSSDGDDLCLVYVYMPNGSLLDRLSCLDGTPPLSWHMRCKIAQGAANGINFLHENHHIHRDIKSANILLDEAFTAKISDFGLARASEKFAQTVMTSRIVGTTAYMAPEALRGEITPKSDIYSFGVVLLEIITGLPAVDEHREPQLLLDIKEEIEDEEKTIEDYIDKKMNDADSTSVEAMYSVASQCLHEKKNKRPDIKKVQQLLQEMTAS

[18] = biological target: Calcium/calmodulin-dependent protein kinase type II subunit delta (Homo sapiens) (UniProt Q13557); test: Residual activity of CAMK2D at 0.1 uM by microplate scintillation counting
[19] = biological target: Casein kinase I isoform gamma-2 (Homo sapiens) (UniProt P78368); test: Residual activity of CK1gamma2 at 1 uM by microplate scintillation counting
[20] = biological target: Casein kinase II subunit alpha' (Homo sapiens) (UniProt P19784); test: Residual activity of CK2alpha2 at 0.1 uM by microplate scintillation counting
[21] = biological target: Serine/threonine-protein kinase MARK1 (Homo sapiens) (UniProt Q9P0L2); test: Residual activity of MARK1 at 1 uM by microplate scintillation counting
[22] = biological target: Focal adhesion kinase 1 (Homo sapiens) (UniProt Q05397); test: Residual activity of FAK at 0.1 uM by microplate scintillation counting
[23] = biological target: Fibroblast growth factor receptor 1 (Homo sapiens) (UniProt P11362); test: Residual activity of wild type FGF-R1 at 0.1 uM by microplate scintillation counting
[24] = biological target: Epidermal growth factor receptor (Homo sapiens, UniProt P00533); test: Inhibition of wild type EGF-R by microplate scintillation counting
[25] = biological target: Receptor-type tyrosine-protein kinase FLT3 (Homo sapiens) (UniProt P36888); test: Residual activity of wild type FLT3 at 0.1 uM by microplate scintillation counting

Chain of Casein kinase II subunit alpha' (Homo sapiens) (P19784 whole entry, looked up): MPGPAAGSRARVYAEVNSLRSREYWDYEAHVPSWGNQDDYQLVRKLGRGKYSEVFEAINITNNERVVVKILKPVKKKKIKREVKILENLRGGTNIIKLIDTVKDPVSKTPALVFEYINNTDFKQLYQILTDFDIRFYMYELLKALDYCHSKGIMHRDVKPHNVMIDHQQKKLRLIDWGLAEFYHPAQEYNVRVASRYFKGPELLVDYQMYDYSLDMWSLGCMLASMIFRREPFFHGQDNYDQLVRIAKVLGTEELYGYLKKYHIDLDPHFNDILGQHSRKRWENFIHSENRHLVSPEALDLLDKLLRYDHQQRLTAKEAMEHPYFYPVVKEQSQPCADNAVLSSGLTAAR
Chain of Ribosomal protein S6 kinase alpha-3 (Homo sapiens) (P51812 whole entry): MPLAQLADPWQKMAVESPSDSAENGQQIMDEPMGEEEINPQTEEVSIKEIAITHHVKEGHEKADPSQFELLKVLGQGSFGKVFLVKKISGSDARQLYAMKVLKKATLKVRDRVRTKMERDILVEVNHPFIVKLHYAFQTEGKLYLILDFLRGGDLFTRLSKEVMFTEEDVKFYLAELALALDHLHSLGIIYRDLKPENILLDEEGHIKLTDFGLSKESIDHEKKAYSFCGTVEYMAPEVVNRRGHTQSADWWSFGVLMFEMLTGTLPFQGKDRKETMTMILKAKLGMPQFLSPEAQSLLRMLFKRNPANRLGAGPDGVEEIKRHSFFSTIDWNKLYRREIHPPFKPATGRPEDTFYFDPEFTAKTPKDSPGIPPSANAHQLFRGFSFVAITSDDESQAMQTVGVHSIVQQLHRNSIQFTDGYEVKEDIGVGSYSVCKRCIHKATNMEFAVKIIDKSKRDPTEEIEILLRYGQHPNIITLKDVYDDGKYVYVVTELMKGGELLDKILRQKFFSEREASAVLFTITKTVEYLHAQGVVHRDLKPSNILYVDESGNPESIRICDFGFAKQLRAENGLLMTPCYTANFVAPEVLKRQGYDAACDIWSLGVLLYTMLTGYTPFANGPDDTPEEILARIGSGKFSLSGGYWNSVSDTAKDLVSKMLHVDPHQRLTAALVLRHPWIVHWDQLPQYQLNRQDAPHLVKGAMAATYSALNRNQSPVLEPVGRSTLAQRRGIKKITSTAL
Chain of Vascular endothelial growth factor receptor 2 (P35968 whole entry): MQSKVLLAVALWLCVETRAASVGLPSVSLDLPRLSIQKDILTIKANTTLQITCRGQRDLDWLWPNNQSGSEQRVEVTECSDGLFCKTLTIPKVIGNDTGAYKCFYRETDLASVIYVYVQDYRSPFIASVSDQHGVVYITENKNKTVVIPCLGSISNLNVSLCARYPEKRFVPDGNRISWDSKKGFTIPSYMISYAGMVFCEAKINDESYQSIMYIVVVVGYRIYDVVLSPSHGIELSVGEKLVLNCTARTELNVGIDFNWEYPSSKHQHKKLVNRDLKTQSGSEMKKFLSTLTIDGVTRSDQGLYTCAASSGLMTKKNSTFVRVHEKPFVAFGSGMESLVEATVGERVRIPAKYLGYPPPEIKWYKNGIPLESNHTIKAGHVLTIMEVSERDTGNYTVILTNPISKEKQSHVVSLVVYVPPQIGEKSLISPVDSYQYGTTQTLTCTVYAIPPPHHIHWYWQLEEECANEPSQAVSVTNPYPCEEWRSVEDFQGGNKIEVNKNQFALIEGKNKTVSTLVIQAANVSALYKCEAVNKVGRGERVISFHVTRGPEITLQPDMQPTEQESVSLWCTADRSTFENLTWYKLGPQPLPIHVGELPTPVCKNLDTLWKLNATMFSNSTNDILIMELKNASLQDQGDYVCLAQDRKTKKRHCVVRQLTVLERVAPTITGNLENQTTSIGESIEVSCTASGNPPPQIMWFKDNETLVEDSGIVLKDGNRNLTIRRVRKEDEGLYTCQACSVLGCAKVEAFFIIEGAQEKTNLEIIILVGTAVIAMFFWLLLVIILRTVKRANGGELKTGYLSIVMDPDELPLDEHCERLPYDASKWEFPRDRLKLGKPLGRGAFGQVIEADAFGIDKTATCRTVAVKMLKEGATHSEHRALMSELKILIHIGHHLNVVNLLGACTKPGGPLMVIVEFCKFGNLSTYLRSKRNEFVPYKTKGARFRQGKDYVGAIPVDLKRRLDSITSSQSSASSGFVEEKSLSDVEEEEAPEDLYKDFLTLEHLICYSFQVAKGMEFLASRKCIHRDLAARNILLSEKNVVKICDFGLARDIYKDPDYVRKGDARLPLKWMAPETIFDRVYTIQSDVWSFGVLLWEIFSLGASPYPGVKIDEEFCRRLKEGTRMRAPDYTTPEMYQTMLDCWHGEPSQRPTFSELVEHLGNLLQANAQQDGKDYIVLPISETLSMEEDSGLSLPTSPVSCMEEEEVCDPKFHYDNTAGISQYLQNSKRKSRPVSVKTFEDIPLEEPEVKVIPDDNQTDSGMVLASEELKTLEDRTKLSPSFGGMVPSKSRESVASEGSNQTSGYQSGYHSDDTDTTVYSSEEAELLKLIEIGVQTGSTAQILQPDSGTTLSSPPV
Chain of Protein-tyrosine kinase 6 (Homo sapiens) (Q13882 whole entry, looked up): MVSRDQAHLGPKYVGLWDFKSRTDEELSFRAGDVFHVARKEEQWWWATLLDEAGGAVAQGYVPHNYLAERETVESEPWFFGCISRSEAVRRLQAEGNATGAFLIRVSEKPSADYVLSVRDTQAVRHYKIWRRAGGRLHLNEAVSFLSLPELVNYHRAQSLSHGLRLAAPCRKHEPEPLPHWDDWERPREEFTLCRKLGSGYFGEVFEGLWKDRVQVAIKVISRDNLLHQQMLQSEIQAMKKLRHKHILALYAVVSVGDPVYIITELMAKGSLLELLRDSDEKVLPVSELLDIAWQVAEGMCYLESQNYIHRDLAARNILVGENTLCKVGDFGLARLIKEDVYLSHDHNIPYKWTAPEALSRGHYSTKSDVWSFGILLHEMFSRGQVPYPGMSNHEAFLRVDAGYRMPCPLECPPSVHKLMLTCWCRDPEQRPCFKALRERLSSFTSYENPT
Chain of Tyrosine-protein kinase ABL2 (Homo sapiens) (P42684 whole entry): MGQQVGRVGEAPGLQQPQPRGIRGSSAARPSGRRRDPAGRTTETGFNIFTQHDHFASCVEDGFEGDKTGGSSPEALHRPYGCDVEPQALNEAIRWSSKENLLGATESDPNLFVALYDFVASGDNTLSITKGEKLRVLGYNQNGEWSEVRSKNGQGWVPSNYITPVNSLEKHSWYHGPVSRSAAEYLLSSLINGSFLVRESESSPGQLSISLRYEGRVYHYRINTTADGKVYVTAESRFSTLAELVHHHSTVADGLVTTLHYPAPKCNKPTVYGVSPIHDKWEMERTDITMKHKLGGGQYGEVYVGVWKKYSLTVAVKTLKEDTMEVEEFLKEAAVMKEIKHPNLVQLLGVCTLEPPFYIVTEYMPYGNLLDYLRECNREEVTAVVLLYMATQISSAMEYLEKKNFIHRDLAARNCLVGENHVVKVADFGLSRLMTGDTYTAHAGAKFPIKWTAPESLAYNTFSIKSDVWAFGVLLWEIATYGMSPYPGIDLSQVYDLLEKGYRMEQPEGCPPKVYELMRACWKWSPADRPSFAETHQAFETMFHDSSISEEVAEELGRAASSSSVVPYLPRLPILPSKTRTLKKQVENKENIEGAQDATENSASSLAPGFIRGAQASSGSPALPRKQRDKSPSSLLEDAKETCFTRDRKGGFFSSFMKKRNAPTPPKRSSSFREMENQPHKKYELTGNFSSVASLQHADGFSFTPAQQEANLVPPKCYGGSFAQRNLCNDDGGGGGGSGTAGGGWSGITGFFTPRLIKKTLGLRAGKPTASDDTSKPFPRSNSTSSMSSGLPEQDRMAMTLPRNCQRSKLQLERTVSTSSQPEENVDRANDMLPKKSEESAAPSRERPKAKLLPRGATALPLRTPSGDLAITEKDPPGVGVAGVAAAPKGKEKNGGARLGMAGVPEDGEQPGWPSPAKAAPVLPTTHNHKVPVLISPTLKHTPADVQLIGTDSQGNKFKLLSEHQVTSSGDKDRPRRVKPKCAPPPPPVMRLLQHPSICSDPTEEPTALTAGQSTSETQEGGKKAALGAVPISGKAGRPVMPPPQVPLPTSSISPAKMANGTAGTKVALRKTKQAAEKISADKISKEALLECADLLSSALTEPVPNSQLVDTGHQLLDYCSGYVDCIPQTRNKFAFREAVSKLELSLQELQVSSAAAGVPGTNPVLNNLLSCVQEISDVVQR
Chain of Casein kinase I isoform gamma-2 (Homo sapiens) (P78368 whole entry, looked up, canonical isoform): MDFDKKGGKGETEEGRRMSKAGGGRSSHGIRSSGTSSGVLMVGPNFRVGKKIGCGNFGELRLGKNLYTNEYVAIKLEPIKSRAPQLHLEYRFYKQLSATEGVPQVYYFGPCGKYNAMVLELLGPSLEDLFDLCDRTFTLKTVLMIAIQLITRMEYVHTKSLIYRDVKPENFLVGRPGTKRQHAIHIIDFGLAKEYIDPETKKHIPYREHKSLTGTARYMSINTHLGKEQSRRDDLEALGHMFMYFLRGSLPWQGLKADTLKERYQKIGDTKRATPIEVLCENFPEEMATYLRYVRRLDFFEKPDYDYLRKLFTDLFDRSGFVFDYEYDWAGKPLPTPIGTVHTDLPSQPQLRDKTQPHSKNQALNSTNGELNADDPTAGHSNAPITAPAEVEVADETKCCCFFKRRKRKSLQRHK
Chain of Dual specificity protein kinase CLK1 (Homo sapiens) (P49759 whole entry, looked up): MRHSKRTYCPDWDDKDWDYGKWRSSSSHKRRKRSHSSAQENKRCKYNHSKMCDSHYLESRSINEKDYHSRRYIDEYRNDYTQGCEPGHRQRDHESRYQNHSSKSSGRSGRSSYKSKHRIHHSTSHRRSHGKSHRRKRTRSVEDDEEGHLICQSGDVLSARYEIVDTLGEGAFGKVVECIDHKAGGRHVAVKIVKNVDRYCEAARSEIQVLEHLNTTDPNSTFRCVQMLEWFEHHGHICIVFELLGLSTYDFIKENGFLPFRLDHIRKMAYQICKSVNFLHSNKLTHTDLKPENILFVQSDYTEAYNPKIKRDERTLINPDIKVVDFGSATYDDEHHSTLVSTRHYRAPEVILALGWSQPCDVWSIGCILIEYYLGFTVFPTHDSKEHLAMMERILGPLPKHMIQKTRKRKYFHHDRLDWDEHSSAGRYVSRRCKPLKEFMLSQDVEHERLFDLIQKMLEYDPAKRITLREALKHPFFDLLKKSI

Row | Structure (SMILES) | residual activity [1] | residual activity [2] | residual activity [3] | residual activity [4] | residual activity [5] | residual activity [6] | residual activity [7] | residual activity [8] | residual activity [9] | residual activity [10] | residual activity [11] | residual activity [12] | residual activity [13] | residual activity [14] | residual activity [15] | residual activity [16] | residual activity [17] | residual activity [18] | residual activity [19] | residual activity [20] | further results
1 | COc1cc2c(Oc3ccc(-c4nc5ccccc5s4)cc3F)ncnc2cc1OCCCN1CCN(C)CC1 | 100% | 87% | 61% | 36% | 99% | 87% | 0% | 73% | 62% | 96% | 95% | 65% | 85% | 95% | 90% | 53% | 97% | 105% | 100% | 88% | residual activity [21]: 90%; residual activity [22]: 98%; residual activity [23]: 95%; IC50 [24]: > 10 µM; residual activity [25]: 130%
2 | COc1cc2c(Oc3ccc(-c4nc5ccccc5s4)cc3)ncnc2cc1OCCCN1CCN(C)CC1 | 115% | 96% | 83% | 50% | 103% | 99% | 1% | 65% | 91% | 97% | 100% | 52% | 97% | 90% | 84% | 59% | 91% | 92% | 98% | 98% | residual activity [21]: 86%; residual activity [22]: 94%; residual activity [23]: 103%; IC50 [24]: > 10 µM; residual activity [25]: 112%
3 | COc1cc2c(Oc3ccc(-c4nc5ccccc5s4)cc3)ncnc2cc1OCCCN1CCCC1 | 128% | 105% | 97% | 58% | 100% | 98% | 0% | 73% | 110% | 101% | 95% | 68% | 68% | 98% | 95% | 74% | 90% | 87% | 107% | 91% | residual activity [21]: 86%; residual activity [22]: 99%; residual activity [23]: 101%; IC50 [24]: > 10 µM; residual activity [25]: 95%
